{
  "source": "ChEMBL document CHEMBL5154688",
  "about": "“Design, Synthesis, and Characterization of I-BET567, a Pan-Bromodomain and Extra Terminal (BET) Bromodomain Oral Candidate” (J Med Chem, 2022)",
  "key": {"[1]": {"assay": "Antineoplastic activity against human NMC 11060 cells xenografted in SCID mouse assessed as reduction in tumor volume at 30 mg/kg, po for 20 days measured at 17 days of post randomization relative to control", "assay_type": "functional", "conditions": "NMC 11060 cell, 480 h, time 20 day"}, "NUT midline carcinoma": {"test_system": "NUT midline carcinoma", "assay": "Antineoplastic activity against human NMC 11060 cells xenografted in SCID mouse assessed as reduction in tumor growth at 3 to 30 mg/kg, po for 20 days", "assay_type": "functional, organism-based", "conditions": "dose 3-30 mg/kg, time 20.0 day"}, "C-C motif chemokine 2": {"target": "C-C motif chemokine 2 (Homo sapiens, UniProt P13500)", "sequence (P13500 whole entry)": "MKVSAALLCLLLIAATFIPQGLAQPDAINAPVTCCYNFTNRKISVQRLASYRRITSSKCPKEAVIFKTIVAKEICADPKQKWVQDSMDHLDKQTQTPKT", "assay": "Inhibition of MCP-1 in LPS-stimulated human whole blood incubate for 24 hrs by immuno assay", "assay_type": "tissue-based"}, "[2]": {"target": "Voltage-gated inwardly rectifying potassium channel KCNH2 (Homo sapiens, UniProt Q12809)", "assay": "Inhibition of hERG", "assay_type": "toxicity"}, "[3]": {"target": "T1, Bromodomain-containing protein 4 (Homo sapiens, UniProt O60885)", "assay": "Inhibition of BRD4 BD1 (unknown origin) incubated for 30 mins in presence of fluorescent ligand by TR-FRET method"}, "[4]": {"assay": "Unbound volume of distribution at steady state in Wistar Han rat blood at 3 mg/kg, po or 1.3 mg/kg, iv measured upto 24 hrs by LC-MS/MS analysis", "assay_type": "ADME, organism-based", "conditions": "in vivo"}, "Mus musculus [5]": {"test_system": "Mus musculus", "assay": "Antiinflammatory activity in KLH-TNP-induced T-cell dependent immunization CD-1 mouse model assessed as reduction in circulating IgG1 at 30 mg/kg, po administered daily for 14 days followed by administration of KLH-TNP after 1 hr", "assay_type": "functional", "conditions": "CD-1, T-cell, 336 h, time 14 day"}, "[6]": {"target": "T2, Bromodomain-containing protein 2 (Homo sapiens, UniProt P25440)", "T2 sequence (P25440 whole entry)": "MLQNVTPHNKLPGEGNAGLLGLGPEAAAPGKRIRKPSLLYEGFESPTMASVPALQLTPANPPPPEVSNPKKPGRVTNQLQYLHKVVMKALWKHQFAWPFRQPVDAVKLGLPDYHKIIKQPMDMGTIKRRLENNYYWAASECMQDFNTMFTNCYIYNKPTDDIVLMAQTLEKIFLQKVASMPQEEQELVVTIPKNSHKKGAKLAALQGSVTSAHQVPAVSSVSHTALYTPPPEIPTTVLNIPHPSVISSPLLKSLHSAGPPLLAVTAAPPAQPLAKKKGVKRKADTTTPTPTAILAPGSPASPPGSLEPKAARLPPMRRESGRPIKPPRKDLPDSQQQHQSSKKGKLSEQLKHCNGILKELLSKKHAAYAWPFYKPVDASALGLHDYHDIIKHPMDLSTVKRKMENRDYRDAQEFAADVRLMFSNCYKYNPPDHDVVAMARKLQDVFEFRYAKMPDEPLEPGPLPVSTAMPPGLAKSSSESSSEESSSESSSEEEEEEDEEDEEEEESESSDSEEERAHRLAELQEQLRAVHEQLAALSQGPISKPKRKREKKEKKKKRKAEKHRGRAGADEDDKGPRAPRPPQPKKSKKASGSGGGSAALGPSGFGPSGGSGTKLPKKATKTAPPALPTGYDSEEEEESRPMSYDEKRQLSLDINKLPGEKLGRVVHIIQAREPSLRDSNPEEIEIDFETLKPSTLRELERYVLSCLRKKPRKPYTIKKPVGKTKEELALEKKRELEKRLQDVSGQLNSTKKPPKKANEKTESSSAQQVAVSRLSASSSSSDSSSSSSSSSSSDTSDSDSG", "assay": "Binding affinity to BRD2 BD1 (unknown origin) assessed as dissociation constant"}, "[7]": {"assay": "Antineoplastic activity against human NMC 11060 cells xenografted in SCID mouse assessed as reduction in tumor volume at 10 mg/kg, po for 20 days measured at 6 days of post randomization relative to control", "assay_type": "functional", "conditions": "NMC 11060 cell, 480 h, time 20 day"}, "[8]": {"assay": "Toxicity in SCID mouse xenografted with human NMC 11060 cells assessed as loss of body weight at 30 mg/kg, po for 20 days", "assay_type": "organism-based", "conditions": "in vivo, 480 h, time 20 day"}, "[9]": {"target": "T3, Bromodomain-containing protein 3 (Homo sapiens, UniProt Q15059)", "T3 sequence (Q15059 whole entry)": "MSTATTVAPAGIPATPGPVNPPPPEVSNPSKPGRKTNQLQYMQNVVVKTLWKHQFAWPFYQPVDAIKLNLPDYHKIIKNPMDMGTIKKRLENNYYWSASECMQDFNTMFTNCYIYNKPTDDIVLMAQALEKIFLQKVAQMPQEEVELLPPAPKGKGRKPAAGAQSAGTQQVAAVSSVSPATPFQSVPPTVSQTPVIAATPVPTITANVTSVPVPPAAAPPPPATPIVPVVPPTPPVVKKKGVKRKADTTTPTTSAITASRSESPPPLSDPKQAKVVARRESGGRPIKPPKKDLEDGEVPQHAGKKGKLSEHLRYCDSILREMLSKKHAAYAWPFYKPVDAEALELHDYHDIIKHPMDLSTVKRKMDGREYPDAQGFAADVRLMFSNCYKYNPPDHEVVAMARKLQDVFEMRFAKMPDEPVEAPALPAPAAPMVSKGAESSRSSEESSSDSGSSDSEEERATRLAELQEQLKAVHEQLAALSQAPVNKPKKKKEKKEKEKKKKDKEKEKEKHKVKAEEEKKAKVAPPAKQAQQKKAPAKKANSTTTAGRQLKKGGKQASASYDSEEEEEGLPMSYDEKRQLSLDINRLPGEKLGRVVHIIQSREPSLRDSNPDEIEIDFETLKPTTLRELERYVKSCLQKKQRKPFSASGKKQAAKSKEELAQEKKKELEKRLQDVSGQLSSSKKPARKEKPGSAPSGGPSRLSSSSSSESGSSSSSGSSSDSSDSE", "assay": "Binding affinity to BRD3 BD2 (unknown origin) assessed as dissociation constant"}, "[10]": {"assay": "Antineoplastic activity against human NMC 11060 cells xenografted in SCID mouse assessed as reduction in tumor volume at 10 mg/kg, po for 20 days measured at 13 days of post randomization relative to control", "assay_type": "functional", "conditions": "NMC 11060 cell, 480 h, time 20 day"}, "[11]": {"assay": "Antineoplastic activity against human NMC 11060 cells xenografted in SCID mouse assessed as reduction in tumor volume at 30 mg/kg, po for 20 days measured at 15 days of post randomization relative to control", "assay_type": "functional", "conditions": "NMC 11060 cell, 480 h, time 20 day"}, "[12]": {"assay": "Antineoplastic activity against human NMC 11060 cells xenografted in SCID mouse assessed as reduction in tumor volume at 10 mg/kg, po for 20 days measured at 10 days of post randomization relative to control", "assay_type": "functional", "conditions": "NMC 11060 cell, 480 h, time 20 day"}, "[13]": {"assay": "Volume of distribution at steady state in Wistar Han rat blood at 3 mg/kg, po or 1.3 mg/kg, iv measured upto 24 hrs by LC-MS/MS analysis", "assay_type": "ADME, organism-based", "conditions": "in vivo"}, "[14]": {"assay": "Antineoplastic activity against human NMC 11060 cells xenografted in SCID mouse assessed as reduction in tumor volume at 30 mg/kg, po for 20 days measured at 20 days of post randomization relative to control", "assay_type": "functional", "conditions": "NMC 11060 cell, 480 h, time 20 day"}, "[15]": {"assay": "Antineoplastic activity against human NMC 11060 cells xenografted in SCID mouse assessed as reduction in tumor volume at 10 mg/kg, po for 20 days measured at 17 days of post randomization relative to control", "assay_type": "functional", "conditions": "NMC 11060 cell, 480 h, time 20 day"}, "CREB-binding protein": {"target": "CREB-binding protein (Homo sapiens, UniProt Q92793)", "assay": "Binding affinity to CREBBP (unknown origin) assessed as dissociation constant"}, "[16]": {"target": "T3, Bromodomain-containing protein 3", "assay": "Binding affinity to BRD3 BD1 (unknown origin) assessed as dissociation constant"}, "Mus musculus [17]": {"test_system": "Mus musculus", "assay": "Antiinflammatory activity in KLH-TNP-induced T-cell dependent immunization CD-1 mouse model assessed as reduction in circulating IgG1 at 30 mg/kg, po administered every other day for 14 days followed by administration of KLH-TNP after 1 hr", "assay_type": "functional", "conditions": "CD-1, T-cell, 336 h, time 14 day"}, "[18]": {"target": "T2, Bromodomain-containing protein 2", "assay": "Binding affinity to BRD2 BD2 (unknown origin) assessed as dissociation constant"}, "[19]": {"assay": "Toxicity in KLH-TNP-induced T-cell dependent immunization CD-1 mouse model assessed as effect on body weight at 30 mg/kg, po administered daily for 14 days", "assay_type": "organism-based", "conditions": "in vivo, 336 h, time 14 day"}, "[20]": {"assay": "Antiproliferative activity against human NMC 11060 cells assessed as inhibition of proliferation", "assay_type": "functional, cell-based", "conditions": "NUT midline carcinoma"}, "[21]": {"assay": "Oral bioavailability in Beagle dog blood at 3 mg/kg by LC-MS/MS analysis", "assay_type": "ADME, organism-based, Canis lupus familiaris"}, "[22]": {"assay": "AUC(0 to 72 hrs) in KLH-TNP-induced T-cell dependent immunization CD-1 mouse model at 30 mg/kg, po administered every third day for 14 days", "assay_type": "ADME, organism-based", "parameters": "dose 30 mg/kg, time 14 day, route po", "conditions": "in vivo"}, "[23]": {"assay": "Unbound fraction in Wistar Han rat blood at 3 mg/kg, po or 1.3 mg/kg, iv measured upto 24 hrs by LC-MS/MS analysis", "assay_type": "ADME, organism-based"}, "[24]": {"assay": "Terminal half life in Beagle dog blood at 3 mg/kg, po or 1.0 mg/kg, iv by LC-MS/MS analysis", "assay_type": "ADME, organism-based, Canis lupus familiaris", "conditions": "read-out: beta t1/2 (converted)"}, "[25]": {"assay": "Toxicity in KLH-TNP-induced T-cell dependent immunization CD-1 mouse model assessed as tolerability at 30 mg/kg, po administered daily for 14 days", "assay_type": "organism-based", "conditions": "in vivo, 336 h, time 14 day"}, "[26]": {"assay": "Renal clearance in Wistar Han rat at 3 mg/kg, po or 1.3 mg/kg, iv upto 24 hrs by LC-MS/MS analysis", "assay_type": "ADME, organism-based", "conditions": "in vivo"}, "[27]": {"target": "Histone acetyltransferase p300 (Homo sapiens, UniProt Q09472)", "sequence (Q09472 whole entry)": "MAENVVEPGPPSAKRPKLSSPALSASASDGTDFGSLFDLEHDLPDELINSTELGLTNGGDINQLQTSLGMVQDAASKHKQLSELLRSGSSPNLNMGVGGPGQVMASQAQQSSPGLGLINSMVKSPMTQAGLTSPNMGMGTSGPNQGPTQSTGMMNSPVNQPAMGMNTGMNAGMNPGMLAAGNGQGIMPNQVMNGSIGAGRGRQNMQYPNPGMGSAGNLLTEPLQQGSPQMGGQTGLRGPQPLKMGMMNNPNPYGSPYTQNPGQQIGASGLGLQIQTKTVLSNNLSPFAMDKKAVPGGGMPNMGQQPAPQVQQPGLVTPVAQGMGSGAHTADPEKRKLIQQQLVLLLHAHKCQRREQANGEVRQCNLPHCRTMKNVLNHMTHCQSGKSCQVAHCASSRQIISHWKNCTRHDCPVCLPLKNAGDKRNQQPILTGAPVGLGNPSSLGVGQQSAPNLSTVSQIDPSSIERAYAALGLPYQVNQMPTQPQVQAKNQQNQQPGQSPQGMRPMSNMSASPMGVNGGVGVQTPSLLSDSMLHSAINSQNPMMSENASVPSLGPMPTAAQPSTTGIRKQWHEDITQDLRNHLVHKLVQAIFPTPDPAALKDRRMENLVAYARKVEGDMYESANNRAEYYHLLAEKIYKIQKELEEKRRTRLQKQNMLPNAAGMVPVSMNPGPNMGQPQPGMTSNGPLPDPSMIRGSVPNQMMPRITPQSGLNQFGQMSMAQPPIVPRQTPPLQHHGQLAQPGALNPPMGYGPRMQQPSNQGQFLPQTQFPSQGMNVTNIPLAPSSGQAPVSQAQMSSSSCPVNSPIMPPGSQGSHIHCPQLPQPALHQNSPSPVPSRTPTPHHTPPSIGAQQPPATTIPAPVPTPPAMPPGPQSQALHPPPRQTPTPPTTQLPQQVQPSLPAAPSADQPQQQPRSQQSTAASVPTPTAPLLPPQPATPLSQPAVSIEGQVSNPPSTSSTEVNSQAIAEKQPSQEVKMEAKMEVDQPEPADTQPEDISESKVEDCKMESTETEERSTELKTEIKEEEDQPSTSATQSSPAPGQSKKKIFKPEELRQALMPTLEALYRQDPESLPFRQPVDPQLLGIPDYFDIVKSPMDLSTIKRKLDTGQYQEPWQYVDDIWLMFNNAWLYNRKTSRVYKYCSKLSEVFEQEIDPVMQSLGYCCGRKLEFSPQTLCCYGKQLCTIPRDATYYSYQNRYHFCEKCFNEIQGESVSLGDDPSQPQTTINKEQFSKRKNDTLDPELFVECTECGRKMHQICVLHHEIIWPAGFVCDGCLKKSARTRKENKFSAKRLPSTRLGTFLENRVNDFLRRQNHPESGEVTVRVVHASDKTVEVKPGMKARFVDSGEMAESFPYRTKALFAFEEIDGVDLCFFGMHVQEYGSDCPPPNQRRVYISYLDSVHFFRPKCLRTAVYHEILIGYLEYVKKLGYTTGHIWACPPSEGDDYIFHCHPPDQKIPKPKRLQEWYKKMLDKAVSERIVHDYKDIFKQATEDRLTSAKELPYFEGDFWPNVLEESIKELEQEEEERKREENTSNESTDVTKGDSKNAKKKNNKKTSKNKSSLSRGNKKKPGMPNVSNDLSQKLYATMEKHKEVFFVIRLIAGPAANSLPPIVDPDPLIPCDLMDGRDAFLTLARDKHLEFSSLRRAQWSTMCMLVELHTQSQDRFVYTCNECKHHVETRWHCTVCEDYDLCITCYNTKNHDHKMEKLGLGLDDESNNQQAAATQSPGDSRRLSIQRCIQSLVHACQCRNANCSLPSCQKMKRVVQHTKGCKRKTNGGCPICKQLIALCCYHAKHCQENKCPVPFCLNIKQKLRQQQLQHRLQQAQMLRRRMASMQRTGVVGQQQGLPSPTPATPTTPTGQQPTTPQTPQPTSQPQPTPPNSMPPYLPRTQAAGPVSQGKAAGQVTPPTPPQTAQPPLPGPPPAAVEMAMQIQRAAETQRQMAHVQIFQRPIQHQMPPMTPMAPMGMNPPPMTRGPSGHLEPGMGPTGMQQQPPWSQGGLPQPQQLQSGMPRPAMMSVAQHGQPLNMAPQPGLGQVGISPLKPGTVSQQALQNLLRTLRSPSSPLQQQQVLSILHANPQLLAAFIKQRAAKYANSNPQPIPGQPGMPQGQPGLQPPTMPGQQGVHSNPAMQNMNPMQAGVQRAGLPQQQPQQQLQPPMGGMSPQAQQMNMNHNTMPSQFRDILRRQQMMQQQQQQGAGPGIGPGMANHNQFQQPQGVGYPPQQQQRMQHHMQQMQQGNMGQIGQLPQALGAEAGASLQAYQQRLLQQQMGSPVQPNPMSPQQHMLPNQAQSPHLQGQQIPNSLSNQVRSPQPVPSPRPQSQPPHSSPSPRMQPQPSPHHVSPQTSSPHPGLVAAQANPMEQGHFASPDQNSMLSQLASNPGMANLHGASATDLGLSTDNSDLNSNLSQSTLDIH", "assay": "Binding affinity to EP300 (unknown origin) assessed as dissociation constant"}, "[28]": {"assay": "Antineoplastic activity against human NMC 11060 cells xenografted in SCID mouse assessed as reduction in tumor volume at 30 mg/kg, po for 20 days measured at 3 days of post randomization relative to control", "assay_type": "functional", "conditions": "NMC 11060 cell, 480 h, time 20 day"}, "[29]": {"assay": "Unbound AUC(0 to 24 hrs) in SCID mouse xenografted with human NMC 11060 cells at 3 to 30 mg/kg, po for 20 days", "assay_type": "ADME, organism-based", "conditions": "in vivo, 480 h, dose 3-30 mg/kg, time 20 day"}, "[30]": {"assay": "Unbound fraction in Beagle dog blood at 3 mg/kg, po or 1.0 mg/kg, iv by LC-MS/MS analysis", "assay_type": "ADME, organism-based, Canis lupus familiaris"}, "[31]": {"assay": "Antineoplastic activity against human NMC 11060 cells xenografted in SCID mouse assessed as reduction in tumor volume at 10 mg/kg, po for 20 days measured at 15 days of post randomization relative to control", "assay_type": "functional", "conditions": "NMC 11060 cell, 480 h, time 20 day"}, "[32]": {"target": "T1, Bromodomain-containing protein 4", "assay": "Binding affinity to BRD4 BD1 (unknown origin) assessed as dissociation constant"}, "[33]": {"assay": "Oral bioavailability in Wistar Han rat blood at 3 mg/kg measured upto 24 hrs by LC-MS/MS analysis", "assay_type": "ADME, organism-based"}},
  "note": "Activity calls are given as the source filed them. No cut-off for these calls is given here.",
  "data": [
    {"smiles": "CC(=O)N1c2ccc(C(N)=O)cc2[C@H](Nc2ncc(Cl)cn2)C[C@@H]1C", "values": [
      {"measurement": "inhibition in vivo at 30 mg/kg", "setting": "[1]", "value": 93, "unit": "%"},
      {"measurement": "Activity", "setting": "NUT midline carcinoma", "value": "Active"},
      {"measurement": "IC50", "setting": "C-C motif chemokine 2", "value": 200, "unit": "nM"},
      {"measurement": "IC50", "setting": "[2]", "value": "> 50100", "unit": "nM"},
      {"measurement": "IC50", "setting": "[3]", "value": 126, "unit": "nM"},
      {"measurement": "Vduss", "setting": "[4]", "value": 10.4, "unit": "L/kg"},
      {"measurement": "inhibition in vivo at 30 mg/kg", "setting": "Mus musculus [5]", "value": 98, "unit": "%"},
      {"measurement": "Kd", "setting": "[6]", "value": 39.8, "unit": "nM"},
      {"measurement": "inhibition in vivo at 10 mg/kg", "setting": "[7]", "value": 54, "unit": "%"},
      {"measurement": "Activity", "setting": "[8]", "value": 19.6, "unit": "%"},
      {"measurement": "Kd", "setting": "[9]", "value": 6.31, "unit": "nM"},
      {"measurement": "inhibition in vivo at 10 mg/kg", "setting": "[10]", "value": 56, "unit": "%"},
      {"measurement": "inhibition in vivo at 30 mg/kg", "setting": "[11]", "value": 92, "unit": "%"},
      {"measurement": "inhibition in vivo at 10 mg/kg", "setting": "[12]", "value": 69, "unit": "%"},
      {"measurement": "Vdss", "setting": "[13]", "value": 2.4, "unit": "L/kg"},
      {"measurement": "inhibition in vivo at 30 mg/kg", "setting": "[14]", "value": 93, "unit": "%"},
      {"measurement": "inhibition in vivo at 10 mg/kg", "setting": "[15]", "value": 59, "unit": "%"},
      {"measurement": "Kd", "setting": "CREB-binding protein", "value": 2510, "unit": "nM"},
      {"measurement": "Kd", "setting": "[16]", "value": 25.1, "unit": "nM"},
      {"measurement": "inhibition in vivo at 30 mg/kg", "setting": "Mus musculus [17]", "value": 93, "unit": "%"},
      {"measurement": "Kd", "setting": "[18]", "value": 7.94, "unit": "nM"},
      {"measurement": "Activity", "setting": "[19]", "value": "Non-Toxic"},
      {"measurement": "IC50", "setting": "[20]", "value": 630, "unit": "nM"},
      {"measurement": "bioavailability", "setting": "[21]", "value": 98, "unit": "%"},
      {"measurement": "AUC at 336 h", "setting": "[22]", "value": 34, "unit": "µM·h"},
      {"measurement": "fraction unbound at 24 h", "setting": "[23]", "value": 0.23},
      {"measurement": "half-life", "setting": "[24]", "value": 1.8, "unit": "h"},
      {"measurement": "Activity", "setting": "[25]", "value": "Non-Toxic"},
      {"measurement": "CL renal at 24 h", "setting": "[26]", "value": 7, "unit": "mL/min/kg"},
      {"measurement": "Kd", "setting": "[27]", "value": 2510, "unit": "nM"},
      {"measurement": "inhibition in vivo at 30 mg/kg", "setting": "[28]", "value": 44, "unit": "%"},
      {"measurement": "fAUC", "setting": "[29]", "value": 10, "unit": "µM·h"},
      {"measurement": "fraction unbound", "setting": "[30]", "value": 0.41},
      {"measurement": "inhibition in vivo at 10 mg/kg", "setting": "[31]", "value": 65, "unit": "%"},
      {"measurement": "Kd", "setting": "[32]", "value": 25.1, "unit": "nM"},
      {"measurement": "bioavailability", "setting": "[33]", "value": 99, "unit": "%"}
    ]}
  ]
}
